≈ marks a conversion by molar mass, not a printed value. Where two headings read alike, the source gives them in different places.
What was measured:
Assay type in all cases: cell-based
[1] = system: Staphylococcus aureus (ATCC 29213); test: MIC by microbroth dilution, Staphylococcus aureus ATCC 29213; settings: ATCC29213
Procedure: (§1) Shown below are the microbiological activities of representative compounds of Formula I of the invention. The compounds were tested by the microbroth dilution method (National committee for Clinical Laboratory Standards, 2011, […]-08) and the Minimum Inhibitory Concentration (MIC) was determined.

[2] = system: Methicillin resistant Staphylococcus aureus (ATCC 33591); test: MIC by microbroth dilution, MRSA ATCC 33591
Procedure: (§2) Shown below are the microbiological activities of representative compounds of Formula I of the invention. The compounds were tested by the microbroth dilution method (National committee for Clinical Laboratory Standards, 2011, M07-08) and the Minimum Inhibitory Concentration (MIC) was determined.
(§3) Analysis of microbiological activity of compounds shown below are the microbiological activities of representative compounds of Formula II of the invention. The compounds were tested by the microbroth dilution method as per the reference in Example 1.

[3] = system: Streptococcus pneumoniae (ATCC 6301); test: MIC by microbroth dilution, Streptococcus pneumoniae ATCC 6301; settings: ATCC6301
Procedure: as §1

[4] = system: Enterococcus faecalis (ATCC 29212); test: MIC by microbroth dilution, Enterococcus faecalis ATCC 29212; settings: ATCC29212
Procedure: as §1

[5] = system: Moraxella catarrhalis (ATCC 8176); test: MIC by microbroth dilution, Moraxella catarrhalis ATCC 8176; settings: ATCC8176
Procedure: as §1

E. coli (ATCC 25922) = test: MIC by microbroth dilution, E. coli ATCC 25922; settings: Escherichia coli
Procedure: as §2, §3

[6] = system: K. pneumoniae (ATCC 700603); test: MIC by microbroth dilution, K. pneumoniae ATCC 700603; settings: Klebsiella pneumoniae, ATCC700603, Formula I compounds
Procedure: as §2, §3

[7] = ATCC33591, Formula I compounds, read-out: MIC Methicillin resistant Staphylococcus aureus (ATCC 33591)
[8] = ATCC25922, Formula I compounds, read-out: MIC E. coli (ATCC 25922)
[9] = ATCC25922, Formula II compounds, read-out: Minimum Inhibitory Concentration (MIC) E. coli ATCC 25922

SMILES | MIC [1] | MIC [2, 7] | MIC [3] | MIC [4] | MIC [5] | MIC (E. coli (ATCC 25922); [8]) | MIC ([2]; Formula II compounds, read-out: Minimum Inhibitory Concentration (MIC) MRSA ATCC 33591) | MIC (E. coli (ATCC 25922); [9]) | MIC [6]
COc1ccc2ncc(C#N)c(CCN3C4CCC3CC(NC(=O)c3ccc5c(c3)OCCO5)C4)c2c1 (centres unmarked) [VT-03-00024] | 1 µg/mL (≈ 2.01 µM) | 2 µg/mL (≈ 4.01 µM) | 2 µg/mL (≈ 4.01 µM) | 8 µg/mL (≈ 16 µM) | 8 µg/mL (≈ 16 µM) | > 32 µg/mL | – | – | –
COc1ccc2ncc(C#N)c(CCN3CCC(NCc4ccc(O)c(OC)c4)CC3)c2c1 [VT-03-00046] | 16 µg/mL (≈ 35.8 µM) | > 16 µg/mL | – | – | – | > 32 µg/mL | – | – | –
COc1ccc2ncc(C#N)c(CCN3CCC(NCc4ncc([N+](=O)[O-])[nH]4)CC3)c2c1 [VT-03-00078] | > 4 µg/mL | – | – | – | – | > 32 µg/mL | – | – | –
CCc1ccc2ncc(=O)n(CCN3CCC(NCc4ccc(C)c(F)c4)CC3)c2c1 [VT-03-00112] | – | – | – | – | – | – | 0.125 µg/mL (≈ 0.296 µM) | 2 µg/mL (≈ 4.73 µM) | –
COc1ccc2ncc(C#N)c(CCN3CCC(NCc4cc(C)cc([N+](=O)[O-])c4C)CC3)c2c1 [VT-03-00075] | 0.12 µg/mL (≈ 0.253 µM) | 0.12 µg/mL (≈ 0.253 µM) | 0.06 µg/mL (≈ 0.127 µM) | 0.5 µg/mL (≈ 1.06 µM) | 0.5 µg/mL (≈ 1.06 µM) | 4 µg/mL (≈ 8.45 µM) | – | – | > 16 µg/mL
COc1ccc2ncc(C#N)c(CCN3CCC(NCc4cc([N+](=O)[O-])ccc4F)CC3)c2c1 [VT-03-00050] | 0.25 µg/mL (≈ 0.539 µM) | 0.5 µg/mL (≈ 1.08 µM) | 4 µg/mL (≈ 8.63 µM) | 4 µg/mL (≈ 8.63 µM) | 4 µg/mL (≈ 8.63 µM) | 16 µg/mL (≈ 34.5 µM) | – | – | > 16 µg/mL
COc1ccc2ncc(OCCN3CCC(NCc4ccc(C)c([N+](=O)[O-])c4)CC3)nc2c1 [VT-03-00062a] | 0.5 µg/mL (≈ 1.11 µM) | 1 µg/mL (≈ 2.21 µM) | 0.5 µg/mL (≈ 1.11 µM) | 4 µg/mL (≈ 8.86 µM) | 2 µg/mL (≈ 4.43 µM) | 4 µg/mL (≈ 8.86 µM) | – | – | > 32 µg/mL
COc1ccc2ncc(C#N)c(CCN3C4CCC3CC(NCc3cc5c(cc3F)OCCO5)C4)c2c1 (centres unmarked) [VT-03-00031] | 1 µg/mL (≈ 1.99 µM) | 2 µg/mL (≈ 3.98 µM) | 1 µg/mL (≈ 1.99 µM) | 2 µg/mL (≈ 3.98 µM) | 4 µg/mL (≈ 7.96 µM) | 16 µg/mL (≈ 31.8 µM) | – | – | > 32 µg/mL
COc1ccc2ncc(C#N)c(CCN3CCC(NCc4csc([N+](=O)[O-])n4)CC3)c2c1 [VT-03-00080] | 0.25 µg/mL (≈ 0.552 µM) | 1 µg/mL (≈ 2.21 µM) | 2 µg/mL (≈ 4.42 µM) | 4 µg/mL (≈ 8.84 µM) | > 4 µg/mL | 32 µg/mL (≈ 70.7 µM) | – | – | –
COc1ccc2ncc(=O)n(CCN3CC[C@H](NCc4ccc(C)c([N+](=O)[O-])c4)[C@@H](O)C3)c2c1 [VT-03-00135] | – | – | – | – | – | – | – | 8 µg/mL (≈ 17.1 µM) | –
COc1ccc2ncc(C#N)c(N3CC(N4CCC(NCc5ccc6c(c5)OCCO6)CC4)C3)c2c1 [VT-03-00032] | 2 µg/mL (≈ 4.12 µM) | 4 µg/mL (≈ 8.24 µM) | 4 µg/mL (≈ 8.24 µM) | 8 µg/mL (≈ 16.5 µM) | 8 µg/mL (≈ 16.5 µM) | > 32 µg/mL | – | – | > 32 µg/mL
COc1ccc2ncc(C#N)c(CCN3C4CCC3CC(NCc3ccc5c(c3)NC(=O)CO5)C4)c2c1 (centres unmarked) [VT-03-00030] | 2 µg/mL (≈ 4.02 µM) | 4 µg/mL (≈ 8.04 µM) | 4 µg/mL (≈ 8.04 µM) | 4 µg/mL (≈ 8.04 µM) | 1 µg/mL (≈ 2.01 µM) | 8 µg/mL (≈ 16.1 µM) | – | – | > 32 µg/mL
COc1ccc2ncc(C#N)c(CCN3C4CCC3CC(NCc3cc5c(cn3)OCS5)C4)c2c1 (centres unmarked) [VT-03-00014] | 2 µg/mL (≈ 4.1 µM) | 4 µg/mL (≈ 8.2 µM) | 2 µg/mL (≈ 4.1 µM) | 4 µg/mL (≈ 8.2 µM) | 4 µg/mL (≈ 8.2 µM) | 32 µg/mL (≈ 65.6 µM) | – | – | > 128 µg/mL
COc1ccc2ncc(C#N)c(CCN3C4CCC3CC(NS(=O)(=O)c3ccc5c(c3)OCCO5)C4)c2c1 (centres unmarked) [VT-03-00021] | 0.25 µg/mL (≈ 0.468 µM) | 0.12 µg/mL (≈ 0.224 µM) | 1 µg/mL (≈ 1.87 µM) | 2 µg/mL (≈ 3.74 µM) | 2 µg/mL (≈ 3.74 µM) | 16 µg/mL (≈ 29.9 µM) | – | – | > 32 µg/mL
COc1ccc2ncc(=O)n(CCN3CCC(NCc4ccc(F)c([N+](=O)[O-])c4)CC3)c2c1 [VT-03-00056] | 0.25 µg/mL (≈ 0.549 µM) | 0.5 µg/mL (≈ 1.1 µM) | 0.25 µg/mL (≈ 0.549 µM) | 8 µg/mL (≈ 17.6 µM) | 1 µg/mL (≈ 2.2 µM) | 4 µg/mL (≈ 8.78 µM) | – | – | > 32 µg/mL
CCc1ccc(CNC2CCN(CCc3c(C#N)cnc4ccc(OC)cc34)CC2)cc1[N+](=O)[O-] [VT-03-00076] | 0.015 µg/mL (≈ 0.0317 µM) | 0.03 µg/mL (≈ 0.0633 µM) | 0.03 µg/mL (≈ 0.0633 µM) | 0.25 µg/mL (≈ 0.528 µM) | 0.25 µg/mL (≈ 0.528 µM) | 2 µg/mL (≈ 4.22 µM) | – | – | > 16 µg/mL
COc1ccc2ncc(C#N)c(CCN3CCC(NCc4ccc([N+](=O)[O-])cn4)CC3)c2c1 [VT-03-00081] | – | 1 µg/mL (≈ 2.24 µM) | – | – | – | > 32 µg/mL | – | – | –
COc1ccc2ncc(C#N)c(CCN3C4CCC3CC(NS(=O)(=O)c3ccccc3C)C4)c2c1 (centres unmarked) [VT-03-00017] | > 32 µg/mL | > 32 µg/mL | > 16 µg/mL | > 64 µg/mL | > 16 µg/mL | > 32 µg/mL | – | – | –

— patent US20170197935A1, “INHIBITORS OF DNA GYRASE FOR THE TREATMENT OF BACTERIAL INFECTIONS” (Vitas Pharma Research Private Limited, priority 2012, published 2017)
